Reference: patent publication US9802937B2, “Substituted pyrazolo{4,3-D}pyrimidines as kinase inhibitors” (ORIGENIS GMBH, priority 2011, dated 2017)

Target: T1, SYK kinase (Homo sapiens, UniProt P43405)
T1 construct: purchased Invitrogen, Carlsbad
Test: SYK Assay (OMNIA KINASE ASSAY, SOX peptide fluorescence)
Type: biochemical
Conditions: apparent Ki calculated from the IC50 using the Cheng-Prusoff equation; 1 mM ATP, 30° C.; read-out: SYK Activities: Ki
Description: In the assay OMNIA® KINASE ASSAY by Invitrogen Corporation (Carlsbad) the effect of invention of a compound on the phosphorylation is determined by measurement of fluorescence intensity of a chelation-enhanced fluorophore called SOX. Upon phosphorylation of the peptide by the kinase of interest, Mg2+ is chelated to form a bridge between the SOX moiety and the phosphate group that is transferred to the specific tyrosine on the peptide. The fluorescence intensity is directly proportional to the amount of peptide phosphorylation.
To the wells of an 384 well small volume plate (Greiner, Frickenhausen) are added (i) the compound under test in 5% DMSO/distilled water (2 μl), (ii) 16 μl of the master mix containing ATP, DTT, Kinase Reaction Buffer, Omina Peptide Substrate Tyr 7 resulting in a final concentration of 1 mM ATP, 0.2 mM DTT and 10 μM Peptide Substrate.
The Master Mix and the assay plate was incubated to reaction temperature before the measurement (30° C.). The reaction was started with addition of (iii) 2 μl 4 μg/ml SYK kinase (Invitrogen, Carlsbad). During measurement fluorescence intensitiy readings were collected using a TECAN M1000 at a wavelength of λex 360/λem 485 nm every 30 s for 30 minutes. The reaction velocity was plotted versus the inhibitor concentration to determine the […] using XLFit 5.0 (IDBS, Guildford) to fit to a sigmoidal dose response curve, and the apparent Ki values were calculated from the IC50 using the Cheng-Prusoff equation (Cheng, Y.; Prusoff, W. H. Biochem. Pharmacol. 22, 3099-3108, 1973).

Row | Ki | Structure (SMILES)
1 | 10 to 100 nM | c1ccc(-c2nc(Nc3ccc(N4CCCCC4)cc3)c3[nH]ncc3n2)cc1 [Example #3, 5-phenyl-N-(4-(piperidin-1-yl)phenyl)-1H-pyrazolo[4,3-d]pyrimidin-7-amine]
2 | < 10 nM | NC(=O)c1ccc(Nc2nc(-c3ccccc3)nc3cn[nH]c23)cc1 [Example #11, 4-((5-phenyl-1H-pyrazolo[4,3-d]pyrimidin-7-yl)amino)benzamide]
3 | 10 to 100 nM | N#Cc1ccc(Nc2nc(-c3ccccc3)nc3cn[nH]c23)cc1 [Example #12, 4-((5-phenyl-1H-pyrazolo[4,3-d]pyrimidin-7-yl)amino)benzonitrile]
4 | 100 to 1000 nM | c1cc(-c2nc(Nc3ccc4[nH]ncc4c3)c3[nH]ncc3n2)ccn1 [Example #13, N-(1H-indazol-5-yl)-5-(pyridin-4-yl)-1H-pyrazolo[4,3-d]pyrimidin-7-amine]
5 | 10 to 100 nM | c1cc(-c2nc(Nc3ccc(N4CCOCC4)cc3)c3[nH]ncc3n2)ccn1 [Example #19, N-(4-morpholinophenyl)-5-(pyridin-4-yl)-1H-pyrazolo[4,3-d]pyrimidin-7-amine]
6 | 10 to 100 nM | CN1CCC(c2nc(Nc3ccc(Cl)cc3)c3[nH]ncc3n2)CC1 [Example #29, N-(4-chlorophenyl)-5-(1-methylpiperidin-4-yl)-1H-pyrazolo[4,3-d]pyrimidin-7-amine]
7 | < 10 nM | c1cc2cn[nH]c2cc1Nc1nc(-c2ccc(N3CCCC3)nc2)nc2cn[nH]c12 [Example #30, N-(1H-indazol-6-yl)-5-(6-(pyrrolidin-1-yl)pyridin-3-yl)-1H-pyrazolo[4,3-d]pyrimidin-7-amine]
8 | < 10 nM | CN(C)c1ccc(Nc2nc(-c3ccc(N4CCCC4)nc3)nc3cn[nH]c23)cc1 [Example #31, N1,N1-dimethyl-N4-(5-(6-(pyrrolidin-1-yl)pyridin-3-yl)-1H-pyrazolo[4,3-d]pyrimidin-7-yl)benzene-1,4-diamine]
9 | 10 to 100 nM | c1ccc(-c2nc(Nc3cc[nH]n3)c3[nH]ncc3n2)cc1 [Example #38, 5-phenyl-N-(1H-pyrazol-3-yl)-1H-pyrazolo[4,3-d]pyrimidin-7-amine]
10 | 100 to 1000 nM | c1ccc(-c2nc(Nc3ccc(N4CCCC4)cc3)c3[nH]ncc3n2)cc1 [Example #39, 5-phenyl-N-(4-(pyrrolidin-1-yl)phenyl)-1H-pyrazolo[4,3-d]pyrimidin-7-amine]
11 | 10 to 100 nM | CN1CCC(c2nc(Nc3ccc(N4CCOCC4)cc3)c3[nH]ncc3n2)CC1 [Example #52, 5-(1-methylpiperidin-4-yl)-N-(4-morpholinophenyl)-1H-pyrazolo[4,3-d]pyrimidin-7-amine]
12 | 10 to 100 nM | CN1CCC(c2nc(Nc3ccc(N4CCN(C)CC4)cc3)c3[nH]ncc3n2)CC1 [Example #53, N-(4-(4-methylpiperazin-1-yl)phenyl)-5-(1-methylpiperidin-4-yl)-1H-pyrazolo[4,3-d]pyrimidin-7-amine]
13 | < 10 nM | CN1CCC(c2nc(Nc3ccc4c(c3)NC(=O)CO4)c3[nH]ncc3n2)CC1 [Example #54, 6-((5-(1-methylpiperidin-4-yl)-1H-pyrazolo[4,3-d]pyrimidin-7-yl)amino)-2H-benzo[b][1,4]oxazin-3(4H)-one]
14 | 100 to 1000 nM | CN1CCC(c2nc(Nc3cc[nH]n3)c3[nH]ncc3n2)CC1 [Example #55, 5-(1-methylpiperidin-4-yl)-N-(1H-pyrazol-3-yl)-1H-pyrazolo[4,3-d]pyrimidin-7-amine]
15 | 100 to 1000 nM | CN1CCC(c2nc(Nc3ccc(N4CCCC4)cc3)c3[nH]ncc3n2)CC1 [Example #56, 5-(1-methylpiperidin-4-yl)-N-(4-(pyrrolidin-1-yl)phenyl)-1H-pyrazolo[4,3-d]pyrimidin-7-amine]
16 | 10 to 100 nM | c1csc(-c2nc(Nc3cc(C4CC4)[nH]n3)c3[nH]ncc3n2)c1 [Example #90, N-(5-cyclopropyl-1H-pyrazol-3-yl)-5-(thiophen-2-yl)-1H-pyrazolo[4,3-d]pyrimidin-7-amine]
17 | 10 to 100 nM | CN1CCC(c2nc(Nc3cc(C4CC4)[nH]n3)c3[nH]ncc3n2)CC1 [Example #92, N-(5-cyclopropyl-1H-pyrazol-3-yl)-5-(1-methylpiperidin-4-yl)-1H-pyrazolo[4,3-d]pyrimidin-7-amine]
18 | 10 to 100 nM | CN1CCC(c2nc(Nc3cccc(O)c3)c3[nH]ncc3n2)CC1 [Example #94, 3-((5-(1-methylpiperidin-4-yl)-1H-pyrazolo[4,3-d]pyrimidin-7-yl)amino)phenol]
19 | < 10 nM | c1ccc2sc(-c3nc(Nc4ccc5cn[nH]c5c4)c4[nH]ncc4n3)nc2c1 [Example #98, 5-(benzo[d]thiazol-2-yl)-N-(1H-indazol-6-yl)-1H-pyrazolo[4,3-d]pyrimidin-7-amine]
20 | 10 to 100 nM | c1cncc(-c2cccc(-c3nc(Nc4cc(C5CC5)[nH]n4)c4[nH]ncc4n3)c2)c1 [Example #100, N-(5-cyclopropyl-1H-pyrazol-3-yl)-5-(3-(pyridin-3-yl)phenyl)-1H-pyrazolo[4,3-d]pyrimidin-7-amine]
21 | 10 to 100 nM | c1cncc(-c2cccc(-c3nc(Nc4ccc(N5CCOCC5)cc4)c4[nH]ncc4n3)c2)c1 [Example #102, N-(4-morpholinophenyl)-5-(3-(pyridin-3-yl)phenyl)-1H-pyrazolo[4,3-d]pyrimidin-7-amine]
22 | 10 to 100 nM | c1cncc(-c2cccc(-c3nc(Nc4ccc5c(c4)NCCO5)c4[nH]ncc4n3)c2)c1 [Example #103, N-(5-(3-(pyridin-3-yl)phenyl)-1H-pyrazolo[4,3-d]pyrimidin-7-yl)-3,4-dihydro-2H-benzo[b][1,4]oxazin-6-amine]
23 | 10 to 100 nM | c1cncc(-c2cccc(-c3nc(Nc4ccc5cn[nH]c5c4)c4[nH]ncc4n3)c2)c1 [Example #104, N-(1H-indazol-6-yl)-5-(3-(pyridin-3-yl)phenyl)-1H-pyrazolo[4,3-d]pyrimidin-7-amine]
24 | 10 to 100 nM | CN1CCN(c2ccc(Nc3nc(-c4ccccc4O)nc4cn[nH]c34)cc2)CC1 [Example #105, 2-(7-((4-(4-methylpiperazin-1-yl)phenyl)amino)-1H-pyrazolo[4,3-d]pyrimidin-5-yl)phenol]
25 | 10 to 100 nM | CN1CCN(c2ccc(Nc3nc(-c4cccc(N5CCOCC5)c4)nc4cn[nH]c34)cc2)CC1 [Example #106, N-(4-(4-methylpiperazin-1-yl)phenyl)-5-(3-morpholinophenyl)-1H-pyrazolo[4,3-d]pyrimidin-7-amine]
26 | 10 to 100 nM | COc1ccc(Nc2nc(-c3cccc(N4CCOCC4)c3)nc3cn[nH]c23)cc1OC [Example #107, N-(3,4-dimethoxyphenyl)-5-(3-morpholinophenyl)-1H-pyrazolo[4,3-d]pyrimidin-7-amine]
27 | 10 to 100 nM | COc1ccccc1-c1nc(Nc2ccc(N3CCOCC3)cc2)c2[nH]ncc2n1 [Example #112, 5-(2-methoxyphenyl)-N-(4-morpholinophenyl)-1H-pyrazolo[4,3-d]pyrimidin-7-amine]
28 | 100 to 1000 nM | COc1ccccc1-c1nc(Nc2cc(C3CC3)[nH]n2)c2[nH]ncc2n1 [Example #113, N-(5-cyclopropyl-1H-pyrazol-3-yl)-5-(2-methoxyphenyl)-1H-pyrazolo[4,3-d]pyrimidin-7-amine]
29 | 100 to 1000 nM | N[C@@H]1CCCC[C@H]1Nc1nc(-c2ccsc2)nc2cn[nH]c12 [Example #115, (1R,2R)—N-(5-Thiophen-3-yl-1H-pyrazolo[4,3-d]pyrimidin-7-yl)-cyclohexane-1,2-diamine]
